Assay results published in ChEMBL document CHEMBL1201862, “PubChem BioAssay data set” (2004).
Active and inactive are the calls of the source.

What was measured:
[1] = system: Streptococcus sp. 'group A'; assay: Streptococcus pyogenes SK(-)GAS viability under kanamycin – luminescence, BacTiterGlo, confirmation, counter-screen for streptokinase expression inhibitor project, dose response (AID 1900); assay type: functional, organism-based
Streptococcus [2] = assay: Luminescence Microorganism-Based Dose Response Follow up to Identify Compounds Cytotoxic to Streptococcus. [Related pubchem assays: 1677 (Project Summary), 1915, 1914, 1902 (Retest at Dose), 1900 (Counter Screen), 1662 (Primary HTS)]; assay type: functional, organism-based
Streptokinase A = biological target: T1, Streptokinase A (Streptococcus pyogenes serotype M1, UniProt P10520); assay: viability-normalized secreted streptokinase activity reduction – plasminogen activation absorbance, OD405, dose response (AID 1914); assay type: functional, Streptococcus pyogenes M1 GAS;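 also: secreted streptokinase activity via plasminogen activation per viability signal from cell pellet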
T1 sequence (P10520 whole entry): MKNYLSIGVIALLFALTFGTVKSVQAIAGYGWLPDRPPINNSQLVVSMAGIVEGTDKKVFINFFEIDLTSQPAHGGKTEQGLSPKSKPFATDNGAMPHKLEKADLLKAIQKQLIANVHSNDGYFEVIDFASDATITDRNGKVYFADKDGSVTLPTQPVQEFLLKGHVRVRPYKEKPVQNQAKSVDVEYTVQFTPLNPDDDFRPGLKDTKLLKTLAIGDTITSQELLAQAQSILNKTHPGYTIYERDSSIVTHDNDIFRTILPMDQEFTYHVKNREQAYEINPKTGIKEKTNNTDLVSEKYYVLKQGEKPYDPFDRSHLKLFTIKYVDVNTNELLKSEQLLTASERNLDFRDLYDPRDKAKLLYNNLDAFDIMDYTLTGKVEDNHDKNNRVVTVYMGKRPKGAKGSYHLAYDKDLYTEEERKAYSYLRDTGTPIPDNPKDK

Streptococcus [3] = assay: GAS UMAA2166 growth inhibition – luminescence, BacTiterGlo, counter-screen for streptokinase expression inhibitor project, dose response (AID 1915); assay type: functional, organism-based;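 also: potency for reduction of bacterial viability or growth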
HeLa = assay: viability loss in HeLa cells – cell-based, 24 h, cherry-picked samples, cytotoxicity control, dose response (AID 504726); assay type: functional; settings: Homo sapiens;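 also: potency for cytotoxicity as loss of luminescence signal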
[4] = biological target: T2, Tyrosine-protein phosphatase non-receptor type 7 (Homo sapiens, UniProt P35236); assay: Dose Response confirmation of compounds that inhibit HePTP. [Related pubchem assays (depositor defined):AID1059, AID1661, AID2085]; assay type: functional
T2 sequence (P35236 whole entry): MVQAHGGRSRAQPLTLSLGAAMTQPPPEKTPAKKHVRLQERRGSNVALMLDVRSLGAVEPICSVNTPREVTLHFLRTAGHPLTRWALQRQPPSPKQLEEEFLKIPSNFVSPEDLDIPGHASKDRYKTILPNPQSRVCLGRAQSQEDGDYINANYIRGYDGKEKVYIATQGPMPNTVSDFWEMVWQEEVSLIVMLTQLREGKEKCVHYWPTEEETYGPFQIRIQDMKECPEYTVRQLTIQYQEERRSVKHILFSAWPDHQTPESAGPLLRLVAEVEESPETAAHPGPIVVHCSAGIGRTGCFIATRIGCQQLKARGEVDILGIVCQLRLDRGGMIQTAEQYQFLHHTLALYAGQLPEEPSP

[5] = biological target: Dual specificity protein phosphatase 3 (Homo sapiens, UniProt P51452); assay: Dose Response Confirmation of compounds that inhibit VHR1 in Fluorescent Assay. [Related pubchem assays (depositor defined):AID1661, AID1878]; assay type: functional
[6] = biological target: Lysosomal acid glucosylceramidase (Homo sapiens, UniProt P04062); assay: Dose response cell-based high throughput screening assay to identify enhancers of beta-glucosidase activity. [Related pubchem assays: 784 ]; assay type: functional
Caspase-3 = biological target: T3, Caspase-3 (Homo sapiens, UniProt P42574); assay: activation of caspase-3 zymogen – biochemical, absorbance, dose response (AID 489014)
T3 sequence (P42574 whole entry): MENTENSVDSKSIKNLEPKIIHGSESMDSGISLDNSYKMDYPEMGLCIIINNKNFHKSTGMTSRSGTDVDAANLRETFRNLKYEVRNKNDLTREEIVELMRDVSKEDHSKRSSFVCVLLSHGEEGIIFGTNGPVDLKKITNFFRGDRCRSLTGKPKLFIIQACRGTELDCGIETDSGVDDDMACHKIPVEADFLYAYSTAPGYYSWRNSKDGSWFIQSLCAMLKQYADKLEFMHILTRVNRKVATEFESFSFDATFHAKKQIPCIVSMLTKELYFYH

Caspase-7 = Caspase-7 (Homo sapiens, UniProt P55210); assay: activation of caspase-7 zymogen – biochemical, absorbance, counter-screen for procaspase-3 activator project, dose response (AID 489013)
cells = assay type: functional
[7] = biological target: T4, Polyadenylate-binding protein 1 (Homo sapiens, UniProt P11940); assay: MLLE binding blockers, Cy5 peptide tracer – biochemical, fluorescence polarization, Cy5-PAM2 peptide, secondary, miRNA deadenylation inhibitor project, dose response (AID 602260); assay type: functional; settings: read-out: IC50_Mean
[8] = biological target: T4, Polyadenylate-binding protein 1; assay: MLLE domain peptide-binding blockers, IC50 – biochemical, fluorescence polarization, FITC-PAM2 peptide, dose response (AID 602259); assay type: functional; settings: read-out: IC50_Mean
[9] = biological target: Kappa-type opioid receptor (Homo sapiens, UniProt P41145); assay: SAR analysis of small molecule agonists of the kappa opioid receptor via a luminescent beta-arrestin assay - Set 2. [Related pubchem assays (depositor defined):AID1777, AID1785, AID1786, AID1966, AID2133, AID2136, AID2284, AID449737]; assay type: functional
[10] = biological target: T5, Mannose-6-phosphate isomerase (Homo sapiens, UniProt P34949); assay: phosphomannose isomerase inhibition – biochemical, fluorescence intensity, confirmation (AID 1535)
T5 sequence (P34949 whole entry): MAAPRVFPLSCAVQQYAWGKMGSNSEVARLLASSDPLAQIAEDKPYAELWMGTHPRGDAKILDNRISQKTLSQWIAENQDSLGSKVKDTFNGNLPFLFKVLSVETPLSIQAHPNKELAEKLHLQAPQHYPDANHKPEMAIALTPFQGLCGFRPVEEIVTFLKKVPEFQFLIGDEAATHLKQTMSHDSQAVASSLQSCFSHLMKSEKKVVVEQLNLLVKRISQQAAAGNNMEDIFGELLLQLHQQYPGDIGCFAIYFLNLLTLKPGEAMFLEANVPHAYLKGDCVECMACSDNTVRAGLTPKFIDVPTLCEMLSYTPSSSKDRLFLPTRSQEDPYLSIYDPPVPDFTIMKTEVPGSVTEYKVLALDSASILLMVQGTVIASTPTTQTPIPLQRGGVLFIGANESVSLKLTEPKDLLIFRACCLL

Phosphomannomutase 2 = Phosphomannomutase 2 (Homo sapiens, UniProt O15305); assay: Counter screen SAR assay for PMM2 inhibitors via a fluorescence intensity assay. [Related pubchem assays (depositor defined):AID1545, AID1574]
[11] = biological target: Phosphoethanolamine/phosphocholine phosphatase (Homo sapiens, UniProt Q8TCT1); assay: SAR assay for compounds that inhibit PHOSPHO1. [Related pubchem assays (depositor defined):AID1545, AID1565, AID1574]
[12] = HPDE-C7 pancreatic duct cell viability loss – fluorescence, HTS (AID 430); assay type: functional, cell-based; settings: Homo sapiens
[13] = viability loss of HPDE-C7K cells – cell-based, fluorescence, HTS, primary screen (AID 431); assay type: functional; settings: Homo sapiens
[14] = biological target: Intestinal-type alkaline phosphatase (Mus musculus, UniProt P24822); assay: PubChem AID 488874; assay type: functional
[15] = biological target: T6, Intestinal-type alkaline phosphatase (Homo sapiens, UniProt P09923); assay: human intestinal alkaline phosphatase activators, dose response, biochemical, luminescence, uHTS hits (AID 463120); assay type: functional
[16] = biological target: T6, Intestinal-type alkaline phosphatase; assay: activation of human intestinal alkaline phosphatase – biochemical, luminescent, uHTS hits, set 2, dose response (AID 488817); assay type: functional;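 also: potency of activators that raise enzyme activity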
[17] = biological target: T7, Alkaline phosphatase, tissue-nonspecific isozyme (Homo sapiens, UniProt P05186); assay: activation of tissue-nonspecific alkaline phosphatase – biochemical, TNAP isozyme, human IAP uHTS hits, selectivity assay for human IAP activator project, dose response (AID 488886); assay type: functional;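 also: potency of compounds raising TNAP activity as a selectivity check on IAP activators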
T7 sequence (P05186 whole entry): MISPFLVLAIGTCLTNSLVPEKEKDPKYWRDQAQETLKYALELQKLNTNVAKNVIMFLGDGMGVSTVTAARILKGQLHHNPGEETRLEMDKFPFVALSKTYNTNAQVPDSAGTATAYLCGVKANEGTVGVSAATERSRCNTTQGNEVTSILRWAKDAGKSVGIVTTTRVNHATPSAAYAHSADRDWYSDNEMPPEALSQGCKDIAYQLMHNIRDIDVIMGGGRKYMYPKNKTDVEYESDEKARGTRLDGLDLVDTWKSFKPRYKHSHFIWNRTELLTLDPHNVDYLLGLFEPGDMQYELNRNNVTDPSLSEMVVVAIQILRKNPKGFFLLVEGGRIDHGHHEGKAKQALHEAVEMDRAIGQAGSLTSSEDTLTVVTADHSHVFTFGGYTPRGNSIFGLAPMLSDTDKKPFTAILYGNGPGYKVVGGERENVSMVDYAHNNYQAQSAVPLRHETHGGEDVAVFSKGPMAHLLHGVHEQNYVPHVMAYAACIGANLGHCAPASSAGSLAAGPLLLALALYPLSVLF

T4 sequence (P11940 whole entry, the tested form may be a part): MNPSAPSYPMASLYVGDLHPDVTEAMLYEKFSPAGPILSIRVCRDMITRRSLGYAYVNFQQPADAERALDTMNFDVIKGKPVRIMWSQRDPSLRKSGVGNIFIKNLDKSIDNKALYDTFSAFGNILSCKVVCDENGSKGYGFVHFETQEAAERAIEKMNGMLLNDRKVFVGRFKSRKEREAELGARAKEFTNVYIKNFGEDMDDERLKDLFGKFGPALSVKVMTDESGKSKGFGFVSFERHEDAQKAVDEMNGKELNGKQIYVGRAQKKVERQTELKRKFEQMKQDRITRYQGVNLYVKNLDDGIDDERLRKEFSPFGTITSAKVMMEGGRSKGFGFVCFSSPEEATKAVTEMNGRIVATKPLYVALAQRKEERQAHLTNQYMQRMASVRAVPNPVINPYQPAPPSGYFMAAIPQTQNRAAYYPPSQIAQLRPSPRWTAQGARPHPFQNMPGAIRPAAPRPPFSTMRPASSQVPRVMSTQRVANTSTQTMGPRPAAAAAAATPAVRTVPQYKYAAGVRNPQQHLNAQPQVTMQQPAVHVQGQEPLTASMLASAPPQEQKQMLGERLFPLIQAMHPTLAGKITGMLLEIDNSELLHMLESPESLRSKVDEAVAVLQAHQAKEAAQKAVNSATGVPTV
T6 sequence (P09923 whole entry): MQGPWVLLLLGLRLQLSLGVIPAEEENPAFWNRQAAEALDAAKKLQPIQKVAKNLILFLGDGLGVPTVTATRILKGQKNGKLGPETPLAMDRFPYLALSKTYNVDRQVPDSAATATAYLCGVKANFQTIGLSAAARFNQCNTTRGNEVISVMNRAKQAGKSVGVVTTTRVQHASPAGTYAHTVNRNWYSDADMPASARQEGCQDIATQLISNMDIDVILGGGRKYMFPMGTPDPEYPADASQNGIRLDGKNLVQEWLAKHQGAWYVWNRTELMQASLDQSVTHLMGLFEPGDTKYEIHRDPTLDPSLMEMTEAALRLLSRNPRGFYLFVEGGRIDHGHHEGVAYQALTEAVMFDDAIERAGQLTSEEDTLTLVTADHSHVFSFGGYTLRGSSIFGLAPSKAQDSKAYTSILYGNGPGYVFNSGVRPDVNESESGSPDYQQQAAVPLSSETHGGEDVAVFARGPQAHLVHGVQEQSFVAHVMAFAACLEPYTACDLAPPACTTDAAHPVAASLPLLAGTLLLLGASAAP
Sequence of Caspase-7 (P55210 24-198 limits assumed): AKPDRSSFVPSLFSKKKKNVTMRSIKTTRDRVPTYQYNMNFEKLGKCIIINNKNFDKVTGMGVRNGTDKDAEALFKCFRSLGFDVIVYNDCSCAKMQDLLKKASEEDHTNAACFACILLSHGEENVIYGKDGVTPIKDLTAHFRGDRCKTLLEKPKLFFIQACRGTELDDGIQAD
Sequence of Caspase-7 (P55210 207-303 limits assumed): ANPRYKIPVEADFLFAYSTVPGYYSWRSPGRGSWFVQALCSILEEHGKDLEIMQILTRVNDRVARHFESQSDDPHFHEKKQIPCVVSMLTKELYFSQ
Sequence of Lysosomal acid glucosylceramidase (P04062 whole entry): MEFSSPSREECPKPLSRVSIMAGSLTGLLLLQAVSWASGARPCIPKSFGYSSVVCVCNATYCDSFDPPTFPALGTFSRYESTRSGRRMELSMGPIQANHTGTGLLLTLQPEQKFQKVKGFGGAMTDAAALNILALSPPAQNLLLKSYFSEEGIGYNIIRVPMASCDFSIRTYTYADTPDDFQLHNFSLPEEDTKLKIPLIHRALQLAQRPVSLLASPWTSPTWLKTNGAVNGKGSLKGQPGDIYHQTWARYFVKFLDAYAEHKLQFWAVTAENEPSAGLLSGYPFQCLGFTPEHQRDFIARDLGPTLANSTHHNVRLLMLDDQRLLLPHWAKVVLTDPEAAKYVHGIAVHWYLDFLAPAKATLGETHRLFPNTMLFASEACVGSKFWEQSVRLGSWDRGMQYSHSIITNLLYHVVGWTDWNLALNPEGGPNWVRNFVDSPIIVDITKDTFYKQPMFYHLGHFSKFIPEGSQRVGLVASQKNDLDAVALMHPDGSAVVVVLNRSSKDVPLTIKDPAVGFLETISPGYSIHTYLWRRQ
Sequence of Phosphoethanolamine/phosphocholine phosphatase (Q8TCT1 whole entry): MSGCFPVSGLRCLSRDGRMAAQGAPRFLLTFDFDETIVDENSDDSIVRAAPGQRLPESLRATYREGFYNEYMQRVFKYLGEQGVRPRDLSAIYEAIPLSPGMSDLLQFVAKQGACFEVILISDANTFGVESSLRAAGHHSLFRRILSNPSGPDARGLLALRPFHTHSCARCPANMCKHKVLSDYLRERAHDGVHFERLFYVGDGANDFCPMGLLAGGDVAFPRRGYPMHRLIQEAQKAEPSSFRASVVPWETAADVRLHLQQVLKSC
Sequence of Intestinal-type alkaline phosphatase (Mus musculus, UniProt P24822) (P24822 whole entry): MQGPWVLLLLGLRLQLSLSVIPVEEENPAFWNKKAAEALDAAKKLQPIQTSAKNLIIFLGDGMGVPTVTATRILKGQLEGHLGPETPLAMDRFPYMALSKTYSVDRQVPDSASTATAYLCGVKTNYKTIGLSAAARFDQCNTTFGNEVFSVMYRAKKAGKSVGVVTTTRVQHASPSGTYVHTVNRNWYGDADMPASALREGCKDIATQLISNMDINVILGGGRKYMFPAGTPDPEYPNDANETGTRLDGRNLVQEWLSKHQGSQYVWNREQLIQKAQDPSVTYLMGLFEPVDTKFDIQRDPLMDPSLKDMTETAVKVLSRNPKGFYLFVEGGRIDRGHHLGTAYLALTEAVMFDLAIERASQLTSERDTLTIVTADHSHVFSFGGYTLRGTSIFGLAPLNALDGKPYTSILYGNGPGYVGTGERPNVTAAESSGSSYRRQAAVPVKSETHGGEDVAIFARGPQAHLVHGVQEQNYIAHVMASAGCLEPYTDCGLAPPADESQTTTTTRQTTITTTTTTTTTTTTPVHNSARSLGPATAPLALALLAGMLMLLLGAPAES
Sequence of Kappa-type opioid receptor (P41145 whole entry): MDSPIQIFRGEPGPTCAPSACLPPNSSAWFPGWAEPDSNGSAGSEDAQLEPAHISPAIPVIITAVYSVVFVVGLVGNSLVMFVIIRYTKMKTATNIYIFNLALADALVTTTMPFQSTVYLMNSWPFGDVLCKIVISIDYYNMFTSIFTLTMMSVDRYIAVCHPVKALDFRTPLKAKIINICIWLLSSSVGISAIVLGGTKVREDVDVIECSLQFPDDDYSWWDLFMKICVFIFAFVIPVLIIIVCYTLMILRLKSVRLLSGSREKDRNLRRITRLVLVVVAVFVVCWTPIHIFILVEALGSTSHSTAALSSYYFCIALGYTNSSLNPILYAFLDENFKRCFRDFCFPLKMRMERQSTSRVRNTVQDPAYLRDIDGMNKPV
Sequence of Phosphomannomutase 2 (O15305 whole entry): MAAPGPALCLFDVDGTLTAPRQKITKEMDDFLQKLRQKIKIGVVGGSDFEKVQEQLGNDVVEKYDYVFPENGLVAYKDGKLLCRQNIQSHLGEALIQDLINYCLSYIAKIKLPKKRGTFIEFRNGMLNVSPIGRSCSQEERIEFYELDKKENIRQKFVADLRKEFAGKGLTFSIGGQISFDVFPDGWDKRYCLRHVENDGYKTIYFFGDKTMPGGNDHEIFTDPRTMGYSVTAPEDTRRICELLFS
Sequence of Dual specificity protein phosphatase 3 (P51452 whole entry): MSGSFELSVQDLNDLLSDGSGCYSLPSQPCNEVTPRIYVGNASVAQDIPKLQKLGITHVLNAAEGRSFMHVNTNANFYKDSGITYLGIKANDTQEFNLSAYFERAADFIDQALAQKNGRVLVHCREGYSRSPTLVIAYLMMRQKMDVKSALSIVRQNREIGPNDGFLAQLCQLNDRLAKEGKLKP

FC(F)(F)c1cccc(-c2cc3ccccc3nc2N2CCCC2)c1
EC50 [1]: 6.96 µM (active) | EC50 (Streptococcus [2]): > 500 µM (not active) | EC50 (Streptokinase A): 9.12 µM (active) | EC50 (Streptococcus [3]): > 150 µM (not active)

Cc1ccc(N(C)C(=O)C2CCCN2S(=O)(=O)c2ccc3c(c2)n(C)c(=O)c(=O)n3C)cc1 (stereo not drawn)
AC50 (HeLa): 267 µM (active)

Cc1ccc2nc(-c3ccncc3)cc(C(=O)Nc3ccc(OC(F)F)cc3)c2c1
IC50 [4]: 4.12 µM (active) | IC50 [5]: 5.69 µM (active)

COc1cccc(-c2cc(C(F)(F)F)nc(NCc3ccco3)n2)c1
EC50 [6]: > 50 µM (not active)

COc1ccc(C2=NC(=O)/C(=C\c3cc(OC)c(OC)c(OC)c3)O2)cc1
EC50 (Caspase-3): 0.42 µM (active) | EC50 (Caspase-7): > 85.2 µM (inactive) | IC50 (cells): 1.18 µM (active) | IC50 [7]: > 66 µM (inactive) | IC50 [8]: > 66 µM (inactive)

O=C(CN(Cc1cccs1)C(=O)c1cccnc1)NC1CCCCC1
EC50 [9]: > 20 µM (inactive)

O=C1c2ccccc2C(=O)c2c1ccc1c(=O)n(-c3ccc(Cl)cc3)sc21
IC50 [10]: > 50 µM (inactive) | IC50 (Phosphomannomutase 2): > 100 µM (inactive) | IC50 [11]: 0.82 µM (active)

O=c1cc(-c2ccccc2)[nH]n1-c1nc2ccccc2[nH]1
EC50 [12]: 2.73 µM (active) | EC50 [13]: 2.21 µM (active) | IC50 [14]: 36.8 µM (active) | EC50 [15]: 11.5 µM (active) | EC50 [16]: 14.8 µM (active) | EC50 [17]: 17.1 µM (active)
